Source: ChEMBL document CHEMBL1201862, “PubChem BioAssay data set” (2004)
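96-well plates; 48 h exposure; 5 concentrations. Endpoints by linear interpolation between flanking doses. Not reached: highest tested concentration assigned. Abbreviation: GI50, concentration required for 50% inhibition of growth.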 Activity calls are given as the source filed them. Cut-off read from the data, not from the text of the source: active = GI50 up to about 1.1 µM and inactive = higher.

Experiments:
Assay in all cases: DTP human tumour cell line panel, 48 h
ACHN = system: ACHN
BT-549 = system: BT-549
COLO 205 = system: COLO 205
HT-29 = system: HT-29
Hs-578T = system: Hs-578T
K562 = system: K562
MDA-MB-435 = system: MDA-MB-435
MDA-N = system: MDA-N
MOLT-4 = system: MOLT-4
OVCAR-3 = system: OVCAR-3
OVCAR-8 = system: OVCAR-8
PC-3 = system: PC-3
RPMI-8226 = system: RPMI-8226
SF-539 = system: SF-539
SR = system: SR
SW-620 = system: SW-620
UACC-257 = system: UACC-257
UO-31 = system: UO-31
SNB-75 = system: SNB-75

`CC[C@H]1C=CCC[C@@]2(C[C@@H]3CC[C@@H]4[C@H](C(=O)OCCCCCCCCCCCCCCCC(=O)N(CCCNC(C)=O)C[C@H](CCNC(C)=O)OC(C)=O)[C@]5(CCC[C@@H](C)O5)NC(=[N+]34)N2)O1` was tested, and the GI50 (ACHN) was 0.382 µM (active), the GI50 (BT-549) was 0.453 µM (active) and the GI50 (COLO 205) was 0.0395 µM (active). For the same molecule, the GI50 (HT-29) was 0.0344 µM (active), the GI50 (Hs-578T) was 0.391 µM (active) and the GI50 (K562) was 0.168 µM (active). The GI50 (MDA-MB-435) was 0.0432 µM (active), the GI50 (MDA-N) was 0.0466 µM (active) and the GI50 (MOLT-4) was 0.0328 µM (active). The GI50 (OVCAR-3) was 0.158 µM (active), the GI50 (OVCAR-8) was 0.614 µM (active) and the GI50 (PC-3) was 0.0349 µM (active). The GI50 (RPMI-8226) was 0.0312 µM (active), the GI50 (SF-539) was 0.26 µM (active) and the GI50 (SR) was 0.0394 µM (active). For the same molecule, the GI50 (SW-620) was 0.264 µM (active), the GI50 (UACC-257) was 0.0281 µM (active) and the GI50 (UO-31) was 1.2 µM (inactive).

`O=C1CCC2(c3ccc(Cl)cc3)Nc3ccncc3N12` (stereo unspecified) was tested, and the GI50 (ACHN) was > 10 µM (inactive), the GI50 (BT-549) was > 10 µM (inactive) and the GI50 (HT-29) was > 10 µM (inactive). For the same molecule, the GI50 (Hs-578T) was > 10 µM (inactive), the GI50 (K562) was > 10 µM (inactive) and the GI50 (MDA-MB-435) was > 10 µM (inactive). The GI50 (MDA-N) was > 10 µM (inactive), the GI50 (MOLT-4) was > 10 µM (inactive) and the GI50 (OVCAR-3) was > 10 µM (inactive). The GI50 (OVCAR-8) was > 10 µM (inactive), the GI50 (PC-3) was > 10 µM (inactive) and the GI50 (SF-539) was > 10 µM (inactive). The GI50 (SNB-75) was > 10 µM (inactive), the GI50 (SR) was > 10 µM (inactive) and the GI50 (SW-620) was > 10 µM (inactive). The GI50 (UACC-257) was > 10 µM (inactive) and the GI50 (UO-31) was > 10 µM (inactive).

For `COC(COC(=O)N1CCN(C=O)CC1)C1=C(N2CC2)C(=O)C(C)=C(N2CC2)C1=O` (stereo unspecified), the GI50 (ACHN) was < 0.0193 µM (active), the GI50 (BT-549) was 0.455 µM (active) and the GI50 (COLO 205) was 0.272 µM (active). The GI50 (HT-29) was 0.189 µM (active), the GI50 (Hs-578T) was 1.26 µM (inactive) and the GI50 (K562) was 0.462 µM (active). For the same molecule, the GI50 (MDA-MB-435) was 0.424 µM (active), the GI50 (MDA-N) was 0.248 µM (active) and the GI50 (MOLT-4) was 0.138 µM (active). The GI50 (OVCAR-3) was 0.656 µM (active), the GI50 (OVCAR-8) was 0.17 µM (active) and the GI50 (PC-3) was 0.461 µM (active). For the same molecule, the GI50 (RPMI-8226) was 0.362 µM (active), the GI50 (SF-539) was 0.0632 µM (active) and the GI50 (SR) was < 0.01 µM (active). The GI50 (SW-620) was 0.141 µM (active), the GI50 (UACC-257) was 0.309 µM (active) and the GI50 (UO-31) was 0.486 µM (active).

In the case of `C/C=C/CC(C(=O)OCC)(N(C)C(=O)OC(C)(C)C)S(=O)(=O)c1ccc(C)cc1` (stereo unspecified), the GI50 (ACHN) is reported as > 100 µM (inactive), the GI50 (BT-549) is reported as > 100 µM (inactive) and the GI50 (COLO 205) is reported as 68.1 µM (inactive). For the same molecule, the GI50 (HT-29) was 39.4 µM (inactive), the GI50 (Hs-578T) was > 100 µM (inactive) and the GI50 (K562) was 70.5 µM (inactive). The GI50 (MDA-MB-435) was 25.7 µM (inactive), the GI50 (MDA-N) was 22.1 µM (inactive) and the GI50 (MOLT-4) was > 100 µM (inactive). The GI50 (OVCAR-3) was > 100 µM (inactive), the GI50 (OVCAR-8) was > 100 µM (inactive) and the GI50 (PC-3) was 71.8 µM (inactive). For the same molecule, the GI50 (RPMI-8226) was 52.8 µM (inactive), the GI50 (SF-539) was > 100 µM (inactive) and the GI50 (SW-620) was 56.5 µM (inactive). For the same molecule, the GI50 (UACC-257) was > 100 µM (inactive) and the GI50 (UO-31) was > 100 µM (inactive).

In the case of `Clc1cc(-c2ccccc2)nc(Nc2nc3ccccc3[nH]2)n1`, the GI50 (ACHN) is reported as 17.5 µM (inactive), the GI50 (BT-549) is reported as 22.9 µM (inactive) and the GI50 (COLO 205) is reported as 13.8 µM (inactive). For the same molecule, the GI50 (HT-29) was 15 µM (inactive), the GI50 (Hs-578T) was 27.3 µM (inactive) and the GI50 (K562) was 4.05 µM (inactive). For the same molecule, the GI50 (MDA-MB-435) was 23.3 µM (inactive), the GI50 (MDA-N) was 18.8 µM (inactive) and the GI50 (MOLT-4) was 22.3 µM (inactive). For the same molecule, the GI50 (OVCAR-8) was 22 µM (inactive), the GI50 (PC-3) was 44.7 µM (inactive) and the GI50 (RPMI-8226) was > 100 µM (inactive). The GI50 (SF-539) was > 100 µM (inactive), the GI50 (SNB-75) was 34.4 µM (inactive) and the GI50 (SR) was 2.84 µM (inactive). For the same molecule, the GI50 (SW-620) was 6.01 µM (inactive), the GI50 (UACC-257) was 20.6 µM (inactive) and the GI50 (UO-31) was 55 µM (inactive).

With `CCN(CC)c1nc(=O)c(C(=O)C(C)(C)C)c(C(C)(C)C)o1` the GI50 (ACHN) was > 100 µM (inactive), the GI50 (BT-549) was > 100 µM (inactive) and the GI50 (COLO 205) was > 100 µM (inactive). For the same molecule, the GI50 (HT-29) was > 100 µM (inactive), the GI50 (Hs-578T) was > 100 µM (inactive) and the GI50 (K562) was > 100 µM (inactive). The GI50 (MDA-MB-435) was > 100 µM (inactive), the GI50 (MDA-N) was > 100 µM (inactive) and the GI50 (MOLT-4) was > 100 µM (inactive). The GI50 (OVCAR-8) was > 100 µM (inactive), the GI50 (PC-3) was > 100 µM (inactive) and the GI50 (RPMI-8226) was > 100 µM (inactive). The GI50 (SF-539) was > 100 µM (inactive), the GI50 (SNB-75) was > 100 µM (inactive) and the GI50 (SR) was > 100 µM (inactive). The GI50 (SW-620) was > 100 µM (inactive) and the GI50 (UACC-257) was > 100 µM (inactive).

`Cc1ccc(C)n1-c1ccccc1C1SCCCS1` was tested, and the GI50 (ACHN) was > 100 µM (inactive), the GI50 (BT-549) was > 100 µM (inactive) and the GI50 (COLO 205) was > 100 µM (inactive). The GI50 (HT-29) was 53.3 µM (inactive), the GI50 (Hs-578T) was > 100 µM (inactive) and the GI50 (K562) was > 100 µM (inactive). For the same molecule, the GI50 (MDA-MB-435) was > 100 µM (inactive), the GI50 (MDA-N) was > 100 µM (inactive) and the GI50 (MOLT-4) was > 100 µM (inactive). For the same molecule, the GI50 (OVCAR-3) was > 100 µM (inactive), the GI50 (OVCAR-8) was > 100 µM (inactive) and the GI50 (PC-3) was > 100 µM (inactive). For the same molecule, the GI50 (RPMI-8226) was > 100 µM (inactive), the GI50 (SF-539) was > 100 µM (inactive) and the GI50 (SNB-75) was 84.5 µM (inactive). The GI50 (SW-620) was > 100 µM (inactive), the GI50 (UACC-257) was > 100 µM (inactive) and the GI50 (UO-31) was > 100 µM (inactive).

For `CCOC(=O)C1C(c2ccc(OC)cc2)c2c(n[nH]c2O)CC1(C)O` (stereo unspecified), the GI50 (ACHN) was > 100 µM (inactive), the GI50 (BT-549) was > 100 µM (inactive) and the GI50 (COLO 205) was > 100 µM (inactive). The GI50 (HT-29) was > 100 µM (inactive), the GI50 (Hs-578T) was > 100 µM (inactive) and the GI50 (MDA-MB-435) was > 100 µM (inactive). For the same molecule, the GI50 (MDA-N) was > 100 µM (inactive), the GI50 (MOLT-4) was > 100 µM (inactive) and the GI50 (OVCAR-3) was > 100 µM (inactive). The GI50 (OVCAR-8) was > 100 µM (inactive), the GI50 (PC-3) was > 100 µM (inactive) and the GI50 (RPMI-8226) was > 100 µM (inactive). The GI50 (SF-539) was > 100 µM (inactive), the GI50 (SNB-75) was > 100 µM (inactive) and the GI50 (SR) was > 100 µM (inactive). The GI50 (SW-620) was > 100 µM (inactive), the GI50 (UACC-257) was > 100 µM (inactive) and the GI50 (UO-31) was > 100 µM (inactive).
